Test results reported in patent US6525001B1, “Substituted pyrimidine and pyridine herbicides” (Mid-American Commercialization Corporation, priority 1997, dated 2003).

Key:
Assay type in all cases: in vivo
Parameters in all cases: key: 0 is no effect; 10 is complete control
[1] = tested on: bedstraw (Galium aparine); assay: Test B pre-/postemergence
Summary of the method: (§1)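 Response scores run from 0, meaning no effect, to 10, meaning complete control, assigned by eye relative to controls twelve to sixteen days after spraying. Treatment was both preemergence on planted seed and postemergence on plants at the 1- to 4-leaf stage.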

[2] = tested on: blackgrass (Alopecurus myosuroides); assay: Test B pre-/postemergence
Summary of the method: as §1

[3] = tested on: broadleaf signalgrass (Brachiaria decumbens); assay: Test B pre-/postemergence
Summary of the method: as §1

[4] = tested on: cocklebur (Xanthium strumarium); assay: Test B pre-/postemergence
Summary of the method: as §1

corn (Zea mays) = assay: Test B pre-/postemergence
Summary of the method: as §1

[5] = tested on: crabgrass (Digitaria sanguinalis); assay: Test B pre-/postemergence
Summary of the method: as §1

[6] = tested on: giant foxtail (Setaria faberii); assay: Test B pre-/postemergence
Summary of the method: as §1

[7] = tested on: momingglory (Ipomoea hederacea); assay: Test B pre-/postemergence
Summary of the method: as §1

[8] = tested on: pigweed (Amaranthus retroflexus); assay: Test B pre-/postemergence
Summary of the method: as §1

[9] = tested on: purple nutsedge (Cyperus rotundus); assay: Test B pre-/postemergence
Summary of the method: as §1

rape (Brassica napus) = assay: Test B pre-/postemergence
Summary of the method: as §1

soybean (Glycine max) = assay: Test B pre-/postemergence
Summary of the method: as §1

[10] = tested on: sugar beet (Beta vulgaris); assay: Test B pre-/postemergence
Summary of the method: as §1

[11] = tested on: velvetleaf (Abutilon theophrasti); assay: Test B pre-/postemergence
Summary of the method: as §1

[12] = tested on: wheat (Triticum aestivum); assay: Test B pre-/postemergence
Summary of the method: as §1

wild oat (Avena fatua) = assay: Test B pre-/postemergence
Summary of the method: as §1

[13] = tested on: bamyardgrass (Echinochloa crus-galli); assay: Test B flood test
Summary of the method: (§2)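 Each value is a visual injury score relative to controls, with 10 meaning complete control and 0 no effect. Evaluation took place twelve to sixteen days after the 2-leaf-stage plants were treated and kept in the greenhouse.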

[14] = tested on: duck salad (Heteranthera limosa); assay: Test B flood test
Summary of the method: as §2

rice (Oryza sativa) = assay: Test B flood test
Summary of the method: as §2

[15] = tested on: smallflower flatsedge (Cyperus difformis); assay: Test B flood test
Summary of the method: as §2

[16] = Preemergence, Rate 62 g/ha, scale of 0 to 10
[17] = Rate 62 g/ha, Postemergence (flood test)
[18] = Rate 125 g/ha, Postemergence section (flood test species)
[19] = Rate 250 g/ha, Postemergence (flood test species)

O=C(c1cccc(C(F)(F)F)c1)c1ccnc(-n2ccc(C(F)(F)F)n2)n1 [Compound 70]
Plant response rating, Bedstraw [1, 16]: 0
Bedstraw plant response rating ([1]; Rate 62 g/ha, Postemergence): 1
Bedstraw plant response rating ([1]; Rate 125 g/ha, Postemergence): 1
Plant response rating, Bedstraw ([1]; Rate 125 g/ha, Preemergence): 0
Plant response rating, Bedstraw ([1]; Rate 250 g/ha, Postemergence): 1
Plant response rating, Bedstraw ([1]; Rate 250 g/ha, Preemergence): 0
Plant response rating, Blackgrass [2, 16]: 0
Blackgrass plant response rating ([2]; Rate 62 g/ha, Postemergence): 0
Blackgrass plant response rating ([2]; Rate 125 g/ha, Postemergence): 0
Plant response rating, Blackgrass ([2]; Rate 125 g/ha, Preemergence): 0
Plant response rating, Blackgrass ([2]; Rate 250 g/ha, Postemergence): 0
Plant response rating, Blackgrass ([2]; Rate 250 g/ha, Preemergence): 0
B. signalgrass plant response rating ([3]; Rate 62 g/ha, Postemergence): 0
B. signalgrass plant response rating ([3]; Rate 62 g/ha, Preemergence): 0
B. signalgrass plant response rating ([3]; Rate 125 g/ha, Postemergence): 0
Plant response rating, B. signalgrass ([3]; Rate 125 g/ha, Preemergence): 0
Plant response rating, B. signalgrass ([3]; Rate 250 g/ha, Postemergence): 1
Plant response rating, B. signalgrass ([3]; Rate 250 g/ha, Preemergence): 0
Plant response rating, Cocklebur [4, 16]: 0
Cocklebur plant response rating ([4]; Rate 62 g/ha, Postemergence): 1
Cocklebur plant response rating ([4]; Rate 125 g/ha, Postemergence): 2
Plant response rating, Cocklebur ([4]; Rate 125 g/ha, Preemergence): 0
Plant response rating, Cocklebur ([4]; Rate 250 g/ha, Postemergence): 2
Plant response rating, Cocklebur ([4]; Rate 250 g/ha, Preemergence): 0
Plant response rating, Corn (corn (Zea mays); [16]): 0
Corn plant response rating (corn (Zea mays); Rate 62 g/ha, Postemergence): 1
Corn plant response rating (corn (Zea mays); Rate 125 g/ha, Postemergence): 1
Plant response rating, Corn (corn (Zea mays); Rate 125 g/ha, Preemergence): 0
Plant response rating, Corn (corn (Zea mays); Rate 250 g/ha, Postemergence): 2
Plant response rating, Corn (corn (Zea mays); Rate 250 g/ha, Preemergence): 0
Plant response rating, Crabgrass [5, 16]: 0
Crabgrass plant response rating ([5]; Rate 62 g/ha, Postemergence): 0
Crabgrass plant response rating ([5]; Rate 125 g/ha, Postemergence): 1
Plant response rating, Crabgrass ([5]; Rate 125 g/ha, Preemergence): 0
Plant response rating, Crabgrass ([5]; Rate 250 g/ha, Postemergence): 1
Plant response rating, Crabgrass ([5]; Rate 250 g/ha, Preemergence): 0
Plant response rating, Giant foxtail [6, 16]: 0
Giant foxtail plant response rating ([6]; Rate 62 g/ha, Postemergence): 0
Giant foxtail plant response rating ([6]; Rate 125 g/ha, Postemergence): 0
Plant response rating, Giant foxtail ([6]; Rate 125 g/ha, Preemergence): 0
Plant response rating, Giant foxtail ([6]; Rate 250 g/ha, Postemergence): 0
Plant response rating, Giant foxtail ([6]; Rate 250 g/ha, Preemergence): 0
Plant response rating, Morningglory [7, 16]: 0
Morningglory plant response rating ([7]; Rate 62 g/ha, Postemergence): 1
Morningglory plant response rating ([7]; Rate 125 g/ha, Postemergence): 1
Plant response rating, Morningglory ([7]; Rate 125 g/ha, Preemergence): 0
Plant response rating, Morningglory ([7]; Rate 250 g/ha, Postemergence): 2
Plant response rating, Morningglory ([7]; Rate 250 g/ha, Preemergence): 0
Plant response rating, Redroot pigweed [8, 16]: 0
Redroot pigweed plant response rating ([8]; Rate 62 g/ha, Postemergence): 0
Redroot pigweed plant response rating ([8]; Rate 125 g/ha, Postemergence): 2
Plant response rating, Redroot pigweed ([8]; Rate 125 g/ha, Preemergence): 0
Plant response rating, Redroot pigweed ([8]; Rate 250 g/ha, Postemergence): 3
Plant response rating, Redroot pigweed ([8]; Rate 250 g/ha, Preemergence): 0
Plant response rating, Nutsedge [9, 16]: 0
Nutsedge plant response rating ([9]; Rate 62 g/ha, Postemergence): 0
Nutsedge plant response rating ([9]; Rate 125 g/ha, Postemergence): 0
Plant response rating, Nutsedge ([9]; Rate 125 g/ha, Preemergence): 0
Plant response rating, Nutsedge ([9]; Rate 250 g/ha, Postemergence): 0
Plant response rating, Rape (rape (Brassica napus); [16]): 0
Rape plant response rating (rape (Brassica napus); Rate 62 g/ha, Postemergence): 0
Rape plant response rating (rape (Brassica napus); Rate 125 g/ha, Postemergence): 1
Plant response rating, Rape (rape (Brassica napus); Rate 125 g/ha, Preemergence): 0
Plant response rating, Rape (rape (Brassica napus); Rate 250 g/ha, Postemergence): 1
Plant response rating, Rape (rape (Brassica napus); Rate 250 g/ha, Preemergence): 0
Plant response rating, Soybean (soybean (Glycine max); [16]): 0
Soybean plant response rating (soybean (Glycine max); Rate 62 g/ha, Postemergence): 1
Soybean plant response rating (soybean (Glycine max); Rate 125 g/ha, Postemergence): 2
Plant response rating, Soybean (soybean (Glycine max); Rate 125 g/ha, Preemergence): 0
Plant response rating, Soybean (soybean (Glycine max); Rate 250 g/ha, Postemergence): 3
Plant response rating, Soybean (soybean (Glycine max); Rate 250 g/ha, Preemergence): 0
Plant response rating, Sugarbeets [10, 16]: 0
Sugarbeets plant response rating ([10]; Rate 62 g/ha, Postemergence): 0
Sugarbeets plant response rating ([10]; Rate 125 g/ha, Postemergence): 1
Plant response rating, Sugarbeets ([10]; Rate 125 g/ha, Preemergence): 0
Plant response rating, Sugarbeets ([10]; Rate 250 g/ha, Postemergence): 2
Plant response rating, Sugarbeets ([10]; Rate 250 g/ha, Preemergence): 0
Plant response rating, Velvetleaf [11, 16]: 0
Velvetleaf plant response rating ([11]; Rate 62 g/ha, Postemergence): 0
Velvetleaf plant response rating ([11]; Rate 125 g/ha, Postemergence): 1
Plant response rating, Velvetleaf ([11]; Rate 125 g/ha, Preemergence): 0
Plant response rating, Velvetleaf ([11]; Rate 250 g/ha, Postemergence): 1
Plant response rating, Velvetleaf ([11]; Rate 250 g/ha, Preemergence): 0
Plant response rating, Wheat [12, 16]: 0
Wheat plant response rating ([12]; Rate 62 g/ha, Postemergence): 0
Wheat plant response rating ([12]; Rate 125 g/ha, Postemergence): 0
Plant response rating, Wheat ([12]; Rate 125 g/ha, Preemergence): 0
Plant response rating, Wheat ([12]; Rate 250 g/ha, Postemergence): 0
Plant response rating, Wheat ([12]; Rate 250 g/ha, Preemergence): 0
Plant response rating, Wild oats (wild oat (Avena fatua); [16]): 0
Wild oats plant response rating (wild oat (Avena fatua); Rate 62 g/ha, Postemergence): 0
Wild oats plant response rating (wild oat (Avena fatua); Rate 125 g/ha, Postemergence): 0
Plant response rating, Wild oats (wild oat (Avena fatua); Rate 125 g/ha, Preemergence): 0
Plant response rating, Wild oats (wild oat (Avena fatua); Rate 250 g/ha, Postemergence): 0
Plant response rating, Wild oats (wild oat (Avena fatua); Rate 250 g/ha, Preemergence): 0
Barnyardgrass plant response rating [13, 17]: 0
Barnyardgrass plant response rating [13, 18]: 0
Plant response rating, Barnyardgrass [13, 19]: 0
Ducksalad plant response rating [14, 17]: 0
Ducksalad plant response rating [14, 18]: 0
Plant response rating, Ducksalad [14, 19]: 0
Rice plant response rating (rice (Oryza sativa); [17]): 0
Rice plant response rating (rice (Oryza sativa); [18]): 0
Plant response rating, Rice (rice (Oryza sativa); [19]): 0
S. Flatsedge plant response rating [15, 17]: 0
S. Flatsedge plant response rating [15, 18]: 0
Plant response rating, S. Flatsedge [15, 19]: 0
